Measurements taken from US7678820B2, “Hetero compound” (Astellas Pharma Inc., priority 2006, dated 2010).
Counter-ions that a name gives are not always drawn. Like-named read-outs stand apart in the source and are kept apart here.

Key:
[1] = system: number of the lymphocytes in peripheral blood; assay: Evaluation of peripheral blood lymphopenia in rat; assay type: in vivo; details: for ED50: Rattus norvegicus, Lymphocyte, read-out: ED50 value after 24 hours; for ED50 value after 24 hours, conclusion in words (persistence): rat peripheral blood lymphopenia, 24 hours after oral administration
Method: 2) Evaluation of Peripheral Blood Lymphopenia in Rat
The peripheral blood lymphopenia in rat was measured at 24 hours after oral administration in the following manner. Six- to ten-week-old male Lewis rats (Japan Charles river laboratories) were randomly divided into the groups (n=3), and the compound of the present invention was suspended in 0.5% methyl cellulose-containing distilled water, and orally administered with a sonde. At 24 hours after administration, under ether anesthesia, 0.2 ml of blood was collected from ocular fundus. To the blood sample were immediately added EDTA/4K and heparin to prevent clotting, and the number of the lymphocytes in blood was measured with an automatic haematology analyzer (Sysmex Corp.; XT-2000i). For the reduction of the number of the lymphocytes in peripheral blood by the compound of the present invention, the percentage with the number of the lymphocytes in groups administered with 0.5% methyl cellulose-containing distilled water being set at 100%, as performed at the same time was used, and the dose to cause 50% reduction of the number of the lymphocytes in peripheral blood by administration of the compound of the present invention was defined an ED50 value (mg/kg).

[2] = biological target: T1, human S1P1 (Homo sapiens, UniProt P21453); assay: GTP[γ-35S] bond assay using the membrane of a human S1P1 expressing cell (S1P1 agonist activity); assay type: biochemical; details: membrane of human S1P1 expressing CHO cell; concentration causing 50% of the maximum GTP[γ-35S] reaction
T1 construct: expressed in transfected cells; membrane fraction used
Method: 1) Evaluation of a Receptor Agonist Activity by a GTP[γ-^35S] Bond Assay Using the Membrane of a Human S1P1 Expressing Cell
The in vitro S1P1 agonist activity of the compound of the present invention was evaluated by the increase in the functional bonding activity into the G-Protein of a GTP[γ-^35S] using the membrane of a human S1P1 expressing cell. A cDNA encoding a human S1P1 was cloned from a human colorectal cDNA library, and introduced to an expression vector pcDNA3.1 to construct a S1P1-pcDNA3.1. Then, by Lipofectamine 2000 (GIBCO), the S1P1-pcDNA3.1 was transfected into a CHO cell, and cultured in a Ham's F-12 culture medium containing 10% fetal bovine serum, 100 U/mL Penicillin, 100 μg/mL Streptomycin, and 1 mg/mL G418 disulfate, to obtain a stable, G418-resistant strain. The cultured human S1P1 expressing cells were isolated in a 1 mM EDTA/2Na-containing PBS, and disrupted under ice-cooling by a homogenizer made of glass in a 1 mM Tris HCl (pH 7.4) buffer solution containing 0.1 mM EDTA and a […]. It was centrifuged at […], and a supernatant was further centrifuged at 4° C. for 60 min at 100,000×g, and suspended in a 10 mM Tris HCl (pH 7.4) buffer solution containing 1 mM EDTA. The obtained membrane (0.13 mg/mL) and […] GTP[γ-^35S] […] The FilterMate was dried at 50° C. for 60 min, and Microscinti-o (Packard) was added thereto for measurement by a liquids scintillation counter for a microplate (Packard, TOP count). For evaluation of the human S1P1 agonist activity of the compound of the present invention and the comparative compound, the percentages with the rate of a maximum reaction to make the GTP[γ-^35S] bonds saturated in the presence of the compound being set at 100%, and the rate of the reaction of the GTP[γ-^35S] bonds in the absence of the compound being set at 0% was used, a non-linear regression curve was plotted, and a concentration to cause an agonist activity operating 50% of the maximum reaction was defined as an EC50 value (nM).

[3] = male Lewis rats, oral administration, 50% reduction of the number of lymphocytes in peripheral blood at 24 hours after administration

T1 sequence (P21453 whole entry): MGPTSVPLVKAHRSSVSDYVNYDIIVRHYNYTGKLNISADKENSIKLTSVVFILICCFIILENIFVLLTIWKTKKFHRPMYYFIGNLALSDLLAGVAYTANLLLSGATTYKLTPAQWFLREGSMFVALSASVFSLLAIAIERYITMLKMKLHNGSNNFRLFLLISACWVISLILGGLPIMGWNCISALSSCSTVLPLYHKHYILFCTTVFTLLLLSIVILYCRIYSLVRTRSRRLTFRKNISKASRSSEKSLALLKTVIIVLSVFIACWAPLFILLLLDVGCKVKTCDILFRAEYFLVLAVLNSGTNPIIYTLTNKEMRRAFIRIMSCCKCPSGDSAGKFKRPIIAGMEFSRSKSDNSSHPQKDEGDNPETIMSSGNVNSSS

CNc1ncccc1-c1noc(-c2ccc(OC(C)C(F)(F)F)c(C(F)(F)F)c2)n1 (centres unmarked) [Comparative Compound 1]
ED50 [1, 3]: 1.4 mg/kg

CC(Oc1ccc(-c2nc(-c3cccnc3N)no2)cc1C(F)(F)F)C(F)(F)F (centres unmarked) [Comparative Compound 2]
ED50 ([1]; po, 24 h): 8.8 mg/kg

Cc1ccc(Cl)cc1-c1noc(-c2ccc(OC(C)C(F)(F)F)c(C(F)(F)F)c2)n1 (centres unmarked) [Comparative Compound 3]
ED50 [1, 3]: 3.7 mg/kg

CNc1ncccc1-c1noc(-c2ccc(O[C@@H](C)C(F)(F)F)c(Cl)c2)n1.Cl [Comparative Compound 4]
ED50 [1, 3]: > 10 mg/kg

CNc1ncccc1-c1noc(-c2ccc(OC(C)C(F)(F)F)c(Cl)c2)n1.Cl (centres unmarked) [Comparative Compound 5]
ED50 [1, 3]: > 10 mg/kg

C[C@H](Oc1ccc(-c2nc(-c3ccc4[nH]cnc4c3)no2)cc1C(F)(F)F)C(F)(F)F.Cl [Ex 119]
EC50 [2]: 4.3 nM | ED50 [1, 3]: 0.071 mg/kg | ED50 value after 24 hours, conclusion in words (persistence) [1]: high ED50 value even after 24 hours, indicating persistence

C[C@H](Oc1ccc(-c2nc(-c3ccc4[nH]cnc4c3)no2)cc1Cl)C(F)(F)F.Cl [Ex 199]
EC50 [2]: 5 nM | ED50 [1, 3]: 0.26 mg/kg | ED50 value after 24 hours, conclusion in words (persistence) [1]: high ED50 value even after 24 hours, indicating persistence

Cc1nc2cc(-c3noc(-c4ccc(OC(C)C(F)(F)F)c(C(F)(F)F)c4)n3)ccc2[nH]1 (centres unmarked) [Example 2, 2-methyl-5-{5-[3-(trifluoromethyl)-4-(2,2,2-trifluoro-1-methylethoxy)phenyl]-1,2,4-oxadiazol-3-yl}-1H-benzimidazole hydrochloride]
EC50 [2]: 13 nM

CC(C)Oc1ccc(-c2nc(-c3cccc4c3ccn4CC(N)=O)no2)cc1C(F)(F)F [Example 5, 2-(4-{5-[4-isopropoxy-3-(trifluoromethyl)phenyl]-1,2,4-oxadiazol-3-yl}-1H-indol-1-yl)acetamide]
EC50 [2]: 5.5 nM

NC(=O)Cn1ccc2c(-c3noc(-c4ccc(OC(CF)CF)c(Cl)c4)n3)cccc21 [Example 6, 2-[4-(5-{3-chloro-4-[2-fluoro-1-(fluoromethyl)ethoxy]phenyl}-1,2,4-oxadiazol-3-yl)-1H-indol-1-yl]acetamide]
EC50 [2]: 1.2 nM

CC(C)Oc1ccc(-c2nc(-c3cccc4c3ccn4CC(N)=O)no2)cc1Cl [Example 8]
EC50 [2]: 5.4 nM

C[C@H](Oc1ccc(-c2nc(-c3cccc4c3ccn4CC(N)=O)no2)cc1C(F)(F)F)C(F)(F)F [Example 12, 2-[4-(5-{3-(trifluoromethyl)-4-[(1S)-2,2,2-trifluoro-1-methylethoxy]phenyl}-oxadiazol-3-yl)-1H-indol-1-yl]acetamide]
EC50 [2]: 4.7 nM

CC(=O)N1CCc2c(-c3noc(-c4ccc(OC(C)C(F)(F)F)c(C(F)(F)F)c4)n3)cccc21 (centres unmarked) [Example 15, 1-acetyl-4-{5-[3-(trifluoromethyl)-4-(2,2,2-trifluoro-1-methylethoxy)phenyl]-1,2,4-oxadiazol-3-yl}indoline]
EC50 [2]: 2.1 nM

CC(Oc1ccc(-c2nc(-c3ccc4[nH]c(CCS(C)(=O)=O)nc4c3)no2)cc1C(F)(F)F)C(F)(F)F (centres unmarked) [Example 23, 2-[2-(methylsulfonyl)ethyl]-5-{5-[3-(trifluoromethyl)-4-(2,2,2-trifluoro-1-methylethoxy)phenyl]-1,2,4-oxadiazol-3-yl}-1H-benzimidazole hydrochloride]
EC50 [2]: 6.8 nM

CC(Oc1ccc(-c2nc(-c3cccc4c3CCN4)no2)cc1C(F)(F)F)C(F)(F)F (centres unmarked) [Example 26, 4-{5-[3-(trifluoromethyl)-4-(2,2,2-trifluoro-1-methylethoxy)phenyl]-1,2,4-oxadiazol-3-yl}indoline]
EC50 [2]: 4.7 nM

Cc1c(-c2noc(-c3ccc(OC(C)C(F)(F)F)c(C(F)(F)F)c3)n2)ccc2[nH]cnc12 (centres unmarked) [Example 37]
EC50 [2]: 5.4 nM

CC(Oc1ccc(-c2nc(-c3ccc4[nH]cnc4c3)no2)cc1C(F)(F)F)C(F)(F)F (centres unmarked) [Example 48]
EC50 [2]: 6.5 nM

CC(Oc1ccc(-c2nc(-c3ccc4[nH]c(N)nc4c3)no2)cc1C(F)(F)F)C(F)(F)F (centres unmarked) [Example 51]
EC50 [2]: 13 nM

CC(Oc1ccc(-c2nc(-c3ccc4[nH]cnc4c3)no2)cc1Cl)C(F)(F)F (centres unmarked) [Example 53]
EC50 [2]: 5.8 nM

CC(Oc1ccc(-c2nc(-c3ccc4nc[nH]c4c3)no2)cc1C#N)C(F)(F)F (centres unmarked) [Example 54]
EC50 [2]: 2.3 nM

CC(Oc1ccc(-c2nc(-c3cccc4nccn34)no2)cc1C(F)(F)F)C(F)(F)F (centres unmarked) [Example 59]
EC50 [2]: 3.8 nM

CC(Oc1ccc(-c2nc(-c3ccnc4[nH]ccc34)no2)cc1C(F)(F)F)C(F)(F)F (centres unmarked) [Example 60]
EC50 [2]: 2.1 nM

CC(Oc1ccc(-c2nc(-c3ccc4nc[nH]c4c3)no2)cc1Br)C(F)(F)F (centres unmarked) [Example 64]
EC50 [2]: 5.7 nM

CC(Oc1ccc(-c2nc(-c3ccc4cn[nH]c4c3)no2)cc1C(F)(F)F)C(F)(F)F (centres unmarked) [Example 65]
EC50 [2]: 4 nM

CC(Oc1ccc(-c2nc(-c3cccc4[nH]ccc34)no2)cc1C(F)(F)F)C(F)(F)F (centres unmarked) [Example 67]
EC50 [2]: 3.7 nM

NC(=O)Cn1ccc2c(-c3noc(-c4ccc(C5CCCC5)c(C(F)(F)F)c4)n3)cccc21 [Example 81]
EC50 [2]: 5.9 nM

CC(Oc1ccc(-c2nc(-c3ccc4nc[nH]c4c3)no2)cc1C(F)F)C(F)(F)F (centres unmarked) [Example 87]
EC50 [2]: 3.7 nM

C=CCOc1ccc(-c2nc(-c3ccc4[nH]cnc4c3)no2)cc1C(F)(F)F [Example 106]
EC50 [2]: 8.7 nM

FC(F)COc1ccc(-c2nc(-c3ccc4[nH]cnc4c3)no2)cc1C(F)(F)F [Example 110]
EC50 [2]: 6.2 nM

C[C@@H](Oc1ccc(-c2nc(-c3ccc4[nH]cnc4c3)no2)cc1C(F)(F)F)C(F)(F)F [Example 120]
EC50 [2]: 4.6 nM

FC(F)(F)c1cc(-c2nc(-c3ccc4nc[nH]c4c3)no2)ccc1Oc1ccccc1 [Example 121]
EC50 [2]: 12 nM

NC(=O)Cn1ccc2c(-c3noc(-c4cnc(OC(CF)CF)c(Cl)c4)n3)cccc21 [Example 143]
EC50 [2]: 5.4 nM

Cc1cc(-c2nc(-c3cccc4c3ccn4CC(N)=O)no2)ccc1O[C@@H](C)C(F)(F)F [Example 147]
EC50 [2]: 3.2 nM

CC(Oc1ccc(-c2nc(-c3cccc4c3ccn4C)no2)cc1C(F)(F)F)C(F)(F)F (centres unmarked) [Example 151]
EC50 [2]: 11 nM

CC(Oc1ccc(-c2nc(-c3cccc4c3CCN4C)no2)cc1C(F)(F)F)C(F)(F)F (centres unmarked) [Example 152]
EC50 [2]: 7.6 nM

NC(=O)Cn1ccc2c(-c3noc(-c4ccc(OC(CF)CF)c(C(F)(F)F)c4)n3)cccc21 [Example 158]
EC50 [2]: 1.8 nM

CC(Oc1ccc(-c2nc(-c3cccc4c3ccn4CC(N)=O)no2)cc1C#N)C(F)(F)F (centres unmarked) [Example 163]
EC50 [2]: 1.9 nM

CC(Oc1ccc(-c2nc(-c3cccc4c3ccn4CC(N)=O)no2)cc1Cl)C(F)(F)F (centres unmarked) [Example 164]
EC50 [2]: 2.8 nM

C[C@H](Oc1ncc(-c2nc(-c3cccc4c3ccn4CC(N)=O)no2)cc1Cl)C(F)(F)F [Example 173]
EC50 [2]: 4.3 nM

CC(Oc1ccc(-c2nc(-c3cccc4c3ccn4CC(N)=O)no2)cc1C(F)(F)F)C(F)(F)F (centres unmarked) [Example 181]
EC50 [2]: 4.7 nM

COCC(=O)n1ccc2c(-c3noc(-c4ccc(OC(C)C(F)(F)F)c(C(F)(F)F)c4)n3)cccc21 (centres unmarked) [Example 182]
EC50 [2]: 4.2 nM

Cc1cc(-c2nc(-c3cccc4c3ccn4CC(=O)NCCO)no2)ccc1O[C@@H](C)C(F)(F)F [Example 193]
EC50 [2]: 6.8 nM

C[C@H](Oc1ccc(-c2nc(-c3cccc4c3ccn4CC(=O)NCCO)no2)cc1C(F)(F)F)C(F)(F)F [Example 194]
EC50 [2]: 2 nM

CC(C)Oc1ccc(-c2nc(-c3cccc4c3ccn4CC(=O)NCCO)no2)cc1C(F)(F)F [Example 196]
EC50 [2]: 5.3 nM

O=C(Cn1ccc2c(-c3noc(-c4ccc(OC(CF)CF)c(Cl)c4)n3)cccc21)NCCO [Example 197]
EC50 [2]: 3.3 nM

C[C@@H](Oc1ccc(-c2nc(-c3ccc4[nH]cnc4c3)no2)cc1Cl)C(F)(F)F [Example 200]
EC50 [2]: 3.6 nM
